Assay results as given in US20040122209A1, “Products for regulating the degradation of collagen and methods for identifying same” (Shriners Hospital For Children, priority 2002, published 2004).

Columns and labels:
[1] = system: isolated human chondrocytes; test: Cell attachment assay (total cellular hexosaminidase); type: cell-based; details: preliminary studies
Method: Ninety six-well, non-tissue culture plates were coated with a peptide fragment of the invention (CB12-II), a negative control peptide (USP), or human fibronectin in PBS at various concentrations overnight at room temperature in the laminar flow hood. […] Optimal binding was obtained with concentration of 10 μg/ml for CB12-II. After the plates were washed once with PBS, additional protein binding sites in the plate wells were blocked with 5% heat-denatured BSA in PBS at 37° […] for 1 hour. Freshly isolated human chondrocytes were recovered for 2 hours as described above, and then added to on substrate-coated plates at the density of 1×10^7 cells/ml (0.5-2×10^6 cells/well) and incubated at 37° C. for 1 hour. The chondrocyte suspensions were preincubated with 5 μg/ml anti-integrin blocking antibodies (from Chemicon): al (clone CB12), a2 (clone P1E6), a5, (clone DID6), α1 (clone 6S6), α2 (cloneP4H9), α3 (clone 25EW), α2β1 (clone BHA2.1), and α5β1 (clone JBS5) at 4° C. for 30 min prior to adding cells to the pre-coated wells for 1 hour at 37° C. Unattached cells were removed and the wells were washed gently twice with PBS. Bound cells were then quantitated by measuring total cellular hexosaminidase as described (36, 37). […] After a 6-h incubation, 90 μl of 50 mM glycine, 5 mM EDTA, pH 10.4 was added, and the absorbance was read at 405 nm.

ERK1/2 = test: Western immunoblot for phosphorylated ERK1/2 in human chondrocytes; type: cell-based
Method: To detect activation of MAP kinases (ERK1/2, p38 MAPK, and JNK1/2), first-passaged chondrocytes plated onto 10-cm culture dishes were incubated with CB12-II (SP), USP, TNF-α, native human type II collagen, human fibronectin, and antibodies to α2β1 and α5β1 for 5-60 min. In some experiments, chondrocytes were precultured with U0126 (inhibitor of phosphorylation of MEK1/2, up-stream kinase molecule of ERK1/2) at 1 μM for 1 h, SB203580 (inhibitor of phosphorylation of p38 MAPK) at 1 μM for 1 h, Herbimycin A (tyrosine kinase inhibitor) at 1 μg/ml for overnight, Wortmannin (PI3 kinase inhibitor) at 100 nM for 1 h, and Cytochalasin D (focal adhesion inhibitor) at 3 μM for 30 or 60 min before adding peptides.
After a variable but designated incubation time, chondrocytes were washed twice with ice cold PBS and lysed in RIPA buffer (10 mM Tris/HCl, pH 7.4, 0.1% SDS, 1% NP-40, 0.1% sodium deoxycholate, 150 mM NaCl, 1 mM EDTA) containing freshly added proteinase and phosphatase inhibitors (1 mM PMSF, 10 μg/ml leupeptin, 1 μg/ml aprotinin, 1 mM Na3VO4, 1 mM NaF). Cell lysate was centrifuged and supernatant was collected. Protein concentration was determined using Bradford's method. Equal amounts of protein were separated on 10% SDS-polyacrylamide gels under reducing conditions and were electrotransferred to a nitrocellulose membrane (Bio-Rad). To block nonspecific binding, the membranes were incubated in PBS containing 5% non-fat milk overnight at 4° C. The membranes were then probed with rabbit antibodies against phosphorylated ERK1/2, p38, and JNK1/2 (New England BioLabs). Antibodies were diluted 1:1000 in PBS containing 0.5% non-fat milk and reacted with the membrane for 1 h at room temperature. Blots were washed with PBS containing 0.1% Tween-20 three times, and incubated for 1 h at room temperature with horseradish peroxidase (HRP)-conjugated goat anti-rabbit IgG (New England BioLabs) diluted 1:2000 with PBS-0.1% Tween 20 for ECL system (Amersham). Then, the membranes were washed with PBS-Tween, and the membranes were detected with the addition of a 1:1 dilution of the ECL detection reagents (Amersham) 1 and 2 for 1 min. The solution was removed, and the membranes were wrapped in plastic wrap and exposed to film for various amounts of time.
First-passaged confluent human chondrocytes were treated with CB12-II (SP) (10 μM), USP (10 μM), anti-α2β1and α5β1 antibodies, anti-integrin α2β1 blocking antibody, and IL-1β or TNF-α. Cell lysates were immunoblotted using antibody that detects phosphorylated p-ERK1I/2 or p-MEK. In some experiments, U0126 at 10 μM, a specific inhibitor of an upstream molecule, MEK1/2, that activates ERK1/2, and SB203580 at 10 μM, that inhibits p38 MAPK activity, were added to the culture 1 h before peptides, antibodies, and cytokines. Herbimycin A, cytochalasin D, and wortmannin were also used as inhibitors.

With ERGPPGPQGARGFPGTPGLPGVK [CB12-II] as the sequence, how does the “coating concentration giving optimal binding of chondrocytes” value [1] read?
The value was 10 µg/mL.

What about the “phosphorylation of ERK1/2 compared with USP at the same concentration” value (ERK1/2; 10 μM) of the same sequence?
Its value is “more than USP”.

And the “time of maximum ERK1/2 phosphorylation” value (ERK1/2; 10 μM)?
Its value is 15 to 30 min.

What about the “time to phosphorylation of ERK1/2 after adding peptide” value (ERK1/2; 10 μM) of the same sequence?
Its value is ≤ 5 min.

And the “phosphorylation of ERK 1/2, dose dependence” value (ERK1/2; 1, 10 and 50 μM, 15 min after addition)?
The value was “dose-dependently”.
